Where only a bound is given, the exact number is not on record here.

Usually IC50 stands for the concentration at which inhibition is half-maximal.

In experiment [1] the target is immunoproteasome LMP7/B5i subunit (Homo sapiens, UniProt P28062). The experiment is described as follows: Caliper-based proteasome enzymatic activity assay, LMP7. Conditions: human recombinant immunoproteasome 0.3 nM, FAM-labeled peptide substrate 1 μM, rt 3 h; read-out: LMP7 subunit IC50. The experiment is classed as biochemical.
Experiment [2] has as its target constitutive proteasome β5c unit (Homo sapiens, UniProt P28074). Nature of the experiment: Caliper-based proteasome enzymatic activity assay, β5c. In kind it is biochemical. Conditions: human recombinant constitutive proteasome 0.3 nM, FAM-labeled peptide substrate 1 μM, rt 3 h; read-out: β5c subunit IC50.

For `CC(C)(C=C(C#N)C(=O)N1CCCC[C@@H](OC(=O)N[C@@H](Cc2ccc(F)cc2)B(O)O)C1)N1CCOCC1` [Example 137, ((R)-1-(((((R)-1-(2-cyano-4-methyl-4-morpholinopent-2-enoyl)azepan-3-yl)oxy)carbonyl)amino)-2-(4-fluorophenyl)ethyl)boronic acid], the IC50 was 1.9 nM in experiment [1] and 2080 nM in experiment [2].

As to `C=CC(=O)N1CCCC(C)(OC(=O)N[C@@H](Cc2ccc(F)cc2)B(O)O)C1` (mixture of isomers) [Example 91, ((1R)-1-((((1-acryloyl-3-methylpiperidin-3-yl)oxy)carbonyl)amino)-2-(4-fluorophenyl)ethyl)boronic acid], the IC50 in experiment [1] and in experiment [2] was over 5000 nM each time.

As to `C=CC(=O)N1C[C@H](F)[C@H](OC(=O)N[C@@H](Cc2ccccc2)B(O)O)C1` [Example 115, ((R)-1-(((((3R,4S)-1-acryloyl-4-fluoropyrrolidin-3-yl)oxy)carbonyl)amino)-2-phenylethyl)boronic acid], the IC50 in experiment [1] worked out at 18.3 nM; in experiment [2] it was 207 nM.

Turning to `CC(C)(C)/C=C(\C#N)C(=O)N1CC[C@H](OC(=O)N[C@@H](Cc2ccccc2)B(O)O)C1` [Example 87, ((R)-1-(((((S)-1-((E)-2-cyano-4,4-dimethylpent-2-enoyl)pyrrolidin-3-yl)oxy)carbonyl)amino)-2-phenylethyl)boronic acid], the IC50 worked out at 1.9 nM in experiment [1] and 574 nM in experiment [2].

On to `CC(C)(C=C(C#N)C(=O)N1CCC[C@@H]1CNC(=O)N[C@@H](Cc1coc2ccccc12)B(O)O)N1CCC(F)(F)CC1` [Example 49, ((R)-2-(benzofuran-3-yl)-1-(3-(((R)-1-(2-cyano-4-(4,4-difluoropiperidin-1-yl)-4-methylpent-2-enoyl)pyrrolidin-2-yl)methyl)ureido)ethyl)boronic acid], for which the IC50 is 5.3 nM in experiment [1] and 1810 nM in experiment [2].

Regarding `CC(C)(C=C(C#N)C(=O)N1C[C@H](F)[C@H](OC(=O)N[C@@H](Cc2ccccc2)B(O)O)C1)N1CCC(F)(F)C1` [Example 111, ((R)-1-(((((3R,4S)-1-(2-cyano-4-(3,3-difluoropyrrolidin-1-yl)-4-methylpent-2-enoyl)-4-fluoropyrrolidin-3-yl)oxy)carbonyl)amino)-2-phenylethyl)boronic acid], the IC50 in experiment [1] is 1.9 nM; in experiment [2], 140 nM.

On to `C[C@H]1CN(C(C)(C)C=C(C#N)C(=O)N2CCCC[C@@H](OC(=O)N[C@@H](Cc3ccccc3)B(O)O)C2)C[C@H](C)O1` [Example 128, ((R)-1-(((((R)-1-(2-cyano-4-((2S,6S)-2,6-dimethylmorpholino)-4-methylpent-2-enoyl)azepan-3-yl)oxy)carbonyl)amino)-2-phenylethyl)boronic acid], for which the IC50 in experiment [1] was found to be 4.7 nM; in experiment [2], 1350 nM.

As to `CC1(C)CCN(C(C)(C)C=C(C#N)C(=O)N2CCC[C@H](OC(=O)N[C@@H](Cc3coc4ccccc34)B(O)O)C2)C1` [Example 68, ((R)-2-(benzofuran-3-yl)-1-(((((S)-1-(2-cyano-4-(3,3-dimethylpyrrolidin-1-yl)-4-methylpent-2-enoyl)piperidin-3-yl)oxy)carbonyl)amino)ethyl)boronic acid], the IC50 in experiment [1] was found to be 31.8 nM; in experiment [2] it was 1240 nM.

In the case of `CC(C)C=C(C#N)C(=O)NCCCC[C@H](NC(=O)c1cc(Cl)ccc1Cl)C(=O)N[C@@H](CC(C)C)B(O)O` [Example 3, ((R)-1-((S)-6-(2-cyano-4-methylpent-2-enamido)-2-(2,5-dichlorobenzamido)hexanamido)-3-methylbutyl)boronic acid], the IC50 was 29.6 nM in experiment [1] and 8.5 nM in experiment [2].

For `CC(C)(C=C(C#N)C(=O)N1CCC[C@H](OC(=O)N[C@@H](Cc2ccccc2)B(O)O)C1)N1CCN(C2COC2)CC1` [Example 79], the IC50 in experiment [1] is 5.3 nM; in experiment [2], 2780 nM.

With `CC(C)(C=C(C#N)C(=O)N1CCC[C@H](OC(=O)N[C@@H](Cc2ccccc2)B(O)O)C1)N1CCN2C(=O)OC[C@@H]2C1` [Example 97, ((R)-1-(((((S)-1-(2-cyano-4-methyl-4-((S)-3-oxotetrahydro-3H-oxazolo[3,4-a]pyrazin-7(1H)-yl)pent-2-enoyl)piperidin-3-yl)oxy)carbonyl)amino)-2-phenylethyl)boronic acid], the IC50 came to 7.7 nM in experiment [1] and 1950 nM in experiment [2].

In the case of `CC(C)(C=C(C#N)C(=O)N1CCC[C@@H](OC(=O)N[C@@H](Cc2ccccc2)B(O)O)C1)N1CCC(F)(F)C1` [Example 55, ((R)-1-(((((R)-1-(2-cyano-4-(3,3-difluoropyrrolidin-1-yl)-4-methylpent-2-enoyl)piperidin-3-yl)oxy)carbonyl)amino)-2-phenylethyl)boronic acid], the IC50 amounted to 5.1 nM in experiment [1] and 3880 nM in experiment [2].

Take `C=CC(=O)N1C[C@@H](F)[C@H](OC(=O)N[C@@H](Cc2ccccc2)B(O)O)C1` [Example 102, ((R)-1-(((((3R,4R)-1-acryloyl-4-fluoropyrrolidin-3-yl)oxy)carbonyl)amino)-2-phenylethyl)boronic acid]: the IC50 in experiment [1] turned out to be 27.1 nM; in experiment [2], 4700 nM.

As for `CC(C)(C=C(C#N)C(=O)N1CC[C@H](NC(=O)N[C@@H](Cc2ccccc2)B(O)O)C1)N1CCC(F)(F)C1` [Example 100, ((R)-1-(3-((S)-1-(2-cyano-4-(3,3-difluoropyrrolidin-1-yl)-4-methylpent-2-enoyl)pyrrolidin-3-yl)ureido)-2-phenylethyl)boronic acid], the values for the IC50 in experiment [1] and in experiment [2] were 206 nM and 3560 nM, respectively.

For the compound `C[C@@H]1CN(C(C)(C)C=C(C#N)C(=O)N2C3CCC2(COC(=O)N[C@@H](Cc2ccccc2)B(O)O)CC3)C[C@@H](C)O1` [Example 126, ((R)-1-((((7-(2-cyano-4-((2R,6R)-2,6-dimethylmorpholino)-4-methylpent-2-enoyl)-7-azabicyclo[2.2.1]heptan-1-yl)methoxy)carbonyl)amino)-2-phenylethyl)boronic acid], the IC50 in experiment [1] was 1.3 nM; in experiment [2], 967 nM.

As to `C=CC(=O)N1C2CCC1(COC(=O)N[C@@H](Cc1coc3ccccc13)B(O)O)CC2` [Example 63, (R)-(1-((((7-acryloyl-7-azabicyclo[2.2.1]heptan-1-yl)methoxy)carbonyl)amino)-2-(benzofuran-3-yl)ethyl)boronic acid], the IC50 in experiment [1] was found to be 2 nM; in experiment [2], 465 nM.

For `CC(C)(C=C(C#N)C(=O)N1CC[C@@H]1COC(=O)N[C@@H](Cc1ccccc1)B(O)O)N1CCC(F)(F)C1` [Example 54, ((R)-1-(((((R)-1-(2-cyano-4-(3,3-difluoropyrrolidin-1-yl)-4-methylpent-2-enoyl)azetidin-2-yl)methoxy)carbonyl)amino)-2-phenylethyl)boronic acid], the IC50 in experiment [1] was determined as 2.7 nM; in experiment [2], 504 nM.

With `C=CC(=O)N1CC[C@H]1COC(=O)N[C@@H](Cc1ccccc1)B(O)O` [Example 51, ((R)-1-(((((S)-1-acryloylazetidin-2-yl)methoxy)carbonyl)amino)-2-phenylethyl)boronic acid], the IC50 in experiment [1] was found to be 256 nM; in experiment [2] it was 1430 nM.

Regarding `C=CC(=O)N1C[C@@H](F)[C@@H](OC(=O)N[C@@H](Cc2ccccc2)B(O)O)C1` [Example 124, ((R)-1-(((((3S,4R)-1-acryloyl-4-fluoropyrrolidin-3-yl)oxy)carbonyl)amino)-2-phenylethyl)boronic acid], the IC50 in experiment [1] is 37.3 nM; in experiment [2], over 5000 nM.

For the compound `CC#CC(=O)N(C)c1cccc(C[C@H](NC(=O)c2cc(Cl)ccc2Cl)C(=O)N[C@@H](Cc2ccccc2)B(O)O)c1` [Example 18, ((R)-1-((S)-2-(2,5-dichlorobenzamido)-3-(3-(N-methylbut-2-ynamido)phenyl)propanamido)-2-phenylethyl)boronic acid], the IC50 in experiment [1] turned out to be 7.3 nM; in experiment [2], 10 nM.

For `C=CC(=O)N1CCC[C@H](OC(=O)N[C@@H](Cc2coc3ccccc23)B(O)O)C1` [Example 65, ((R)-1-(((((S)-1-acryloylpiperidin-3-yl)oxy)carbonyl)amino)-2-(benzofuran-3-yl)ethyl)boronic acid], the IC50 in experiment [1] was found to be 7.5 nM; in experiment [2], 418 nM.

Regarding `CC(C)(C=C(C#N)C(=O)N1CCC[C@](C)(OC(=O)N[C@@H](Cc2ccccc2)B(O)O)C1)N1CCC(F)(F)C1` (single isomer, unassigned) [Example 92], the IC50 in experiment [1] is 42.2 nM; in experiment [2], over 5000 nM.

Turning to `C=CC(=O)N1CCC[C@H](OC(=O)N[C@@H](Cc2ccccc2)B(O)O)C1` [Example 67, ((R)-1-(((((S)-1-acryloylpiperidin-3-yl)oxy)carbonyl)amino)-2-phenylethyl)boronic acid], the IC50 in experiment [1] is 249 nM; in experiment [2], over 5000 nM.

Consider `C=CC(=O)N1C2CCC1(COC(=O)N[C@@H](Cc1ccc(F)cc1)B(O)O)CC2` [Example 76, (R)-(1-((((7-acryloyl-7-azabicyclo[2.2.1]heptan-1-yl)methoxy)carbonyl)amino)-2-(4-fluorophenyl)ethyl)boronic acid], for which the results for the IC50 in experiment [1] and in experiment [2] were 21.1 nM and 4030 nM, respectively.

As to `C[C@H]1CN(C(C)(C)C=C(C#N)C(=O)N2CCCC[C@@H](OC(=O)N[C@@H](Cc3ccccc3)B(O)O)C2)CCO1` [Example 130, ((R)-1-(((((R)-1-(2-cyano-4-methyl-4-((S)-2-methylmorpholino)pent-2-enoyl)azepan-3-yl)oxy)carbonyl)amino)-2-phenylethyl)boronic acid], the IC50 in experiment [1] turned out to be 2.8 nM; in experiment [2] it was 2040 nM.

Consider `COC(=O)N1CCN(C(C)(C)C=C(C#N)C(=O)N2CCCC[C@H](OC(=O)N[C@@H](Cc3ccccc3)B(O)O)C2)CC1` [Example 108, ((R)-1-(((((S)-1-(2-cyano-4-(4-(methoxycarbonyl)piperazin-1-yl)-4-methylpent-2-enoyl)azepan-3-yl)oxy)carbonyl)amino)-2-phenylethyl)boronic acid], for which the IC50 in experiment [1] amounted to 1.2 nM; in experiment [2] it was 3000 nM.

The values are drawn from patent US12312370B2, “Immunoproteasome inhibitors” (Principia Biopharma Inc., priority 2017, dated 2025).
